Experimental data from article PMC2749490 (Bioorganic & medicinal chemistry, 2009).
Where two headings read alike, the source gives them in different places. One block for each compound: values may come before it. *1 amine or outer side, *2 acyl side, *3 side chain or, on linkers, in order; H or OH if unused. Where a SMILES comes first, the peptide text is derived from it. Bridges are numbered along the chain shown (N, C = ends). Where no end group is shown, it is not given here. [ ]: non-standard residue; d: D form. The star is where a group is joined. Staurosporine = CO[C@@H]1[C@H](N(C)*)C[C@H]2O[C@]1(C)n1c3ccccc3c3c4c(c5c6ccccc6n2c5c31)C(=O)NC4; Suc = O=C(CCC(=O)[*:2])[*:1]; Dap = NC[C@H](N)C(=O)O; βAla = NCCC(=O)O

How the values were obtained:
[1] = target: T1, cAMP-dependent protein kinase (PKA) (Homo sapiens, UniProt P17612); test: PKA inhibitor IC50 determination; format: biochemical
[2] = target: T2, PKA (Homo sapiens, UniProt P17612); test: PKA kinase assays in the presence of 7.5 mM DTT; format: biochemical
[3] = target: T2, PKA; format: biochemical; conditions: versus Kemptide
[4] = target: T1, cAMP-dependent protein kinase (PKA); conditions: earlier proof-of-principle studies; cited from earlier work

IC50 [1]: > 1000 µM
Compound: Nc1ncnc2c1ncn2[C@@H]1O[C@H](C(=O)O)[C@@H](O)[C@H]1O [6a]

Compound: CC(C)[C@@H]1NC(=O)[C@H](CCCNC(=N)N)NC(=O)[C@H](Cc2ccccc2)NC(=O)[C@H]([C@@H](C)O)NC(=O)[C@@H](NC(=O)CCNC(=O)CCNC(=O)CCNC(=O)CCNC(=O)CCNC(=O)CCNC(=O)CCNC(=O)[C@H]2O[C@@H](n3cnc4c(N)ncnc43)[C@H](O)[C@@H]2O)CSSC[C@@H](C(=O)NCC(N)=O)NC(=O)CNC(=O)[C@H](Cc2ccccc2)NC1=O [compound 6] (HELM PEPTIDE1{[Nc1ncnc2c1ncn2[C@@H]1O[C@H](C(=O)[*:2])[C@@H](O)[C@H]1O].[bAla].[bAla].[bAla].[bAla].[bAla].[bAla].[bAla].C.T.F.R.V.F.G.C.G.[am]}$PEPTIDE1,PEPTIDE1,9:R3-16:R3$$$V2.0)
improvement from the adenosine derivative 6a ([1]; ratio of PKA IC50 values): > 300 fold

Compound: CO[C@@H]1[C@H](N(C)C(=O)CCC(=O)NCCC(=O)NCCC(=O)NCCC(=O)NCCC(=O)NCCC(=O)NCCC(=O)NCCC(=O)N[C@H]2CC(=O)NC[C@@H](C(=O)NCC(N)=O)NC(=O)CNC(=O)[C@H](Cc3ccccc3)NC(=O)[C@H](C(C)C)NC(=O)[C@H](CCCNC(=N)N)NC(=O)[C@H](Cc3ccccc3)NC(=O)[C@H]([C@@H](C)O)NC2=O)C[C@H]2O[C@]1(C)n1c3ccccc3c3c4c(c5c6ccccc6n2c5c31)C(=O)NC4 [compound 7] ({Staurosporine-Suc-βAla-βAla-βAla-βAla-βAla-βAla-βAla}-DTFRVFG[Dap]G-NH2; lactam 1-8)
sensitivity to reducing conditions [2]: insensitive to reducing conditions

mode of inhibition with respect to peptide substrate (best-fit model) [3]: noncompetitive
Compound: cyclo(CTFRVFGC)G (CTFRVFGCG; disulfide 1-8 (inferred)) [1b]

Compound: cyclo(CTFRVFGC)G [1b]
IC50 [4]: 57 µM
